Measured values as given in US20170001956A1, “HYDROCARBYL CARBOXYBETAINE AND METHOD FOR PREVENTING HOFMANN ELIMINATION IN ALKALINE ENVIRONMENT” (NATIONAL CHUNG CHENG UNIVERSITY, priority 2015, published 2017).

Test system: Staphylococcus aureus
Conditions: treated with 1M NaOH; compared to CB treated with 1M NaOH (CB-NaOH); FIG. 7

Compound: CC(C[N+](C)(C)CCSSCC[N+](C)(C)CC(C)C(=O)O)C(=O)O (stereo not drawn) [α-mCB, carboxy-alpha-methyl-betaine disulfide]
- adsorption resistance against the biofouling of S. aureus: better adsorption resistance
